Measurements: patent US11034725B2, “Compositions and methods for treating cardiovascular disease” (Genentech, Inc., priority 2016, dated 2021)
Entries after “also recorded” stand apart in the source; their conditions may differ. Like-named read-outs stand apart in the source and are kept apart here. Bridge positions count the residues as written; N and C are the ends. Peptide text beside a SMILES is read from it.

Key:
PCSK9 [1] = biological target: T1, PCSK9 (Homo sapiens, UniProt Q8NBP7); experiment: Surface plasmon resonance biosensor-based affinity analysis (Example 4); assay type: binding; details: for Kd: Table 7, Target PCSK9, SPR at 20° C.
PCSK9Δhelix [2] = biological target: T2, PCSK9Δhelix (Homo sapiens, UniProt Q8NBP7); experiment: as above; assay type: binding
T2 construct: Human PCSK9 construct M1-Q692 with an engineered TEV site (residue deletion Y166, R167); made in house; host or cells: CHO

[3] = biological target: T3, PCSK9-R167A:R215A:R218A (PCSK9-AAA) (Homo sapiens, UniProt Q8NBP7, R167A/R215A/R218A); experiment: FXIa cleavage assay of the P′ helix of PCSK9-AAA; assay type: biochemical; details: immunoblot with anti-N-terminal peptide antibody
T3 construct: made in house; host or cells: CHO (transient)
Protocol: The PCSK9-AAA mutant (2.6 μM) was incubated with 50 nM FXIa (Haematologic Technologies) in Tris buffer (50 mM Tris, 150 mM NaCl, 4 mM CaCl2, pH 8.0) at room temperature for the indicated time periods. […] After SDS-PAGE of the samples, proteins were transferred to a nitrocellulose membrane using iBlot (Invitrogen). Proteins were then probed with a polyclonal rabbit antibody (1:3000) raised against the PCSK9 N-terminal peptide (^153[…]^168 (SEQ ID NO: 5)), followed with HRP-conjugated donkey anti-rabbit antibody (1:5000, GE Healthcare) using iBind (Invitrogen). PCSK9 signals were detected by ECL (GE Healthcare) and visualized by autoradiography.
Proteins were then probed with a polyclonal rabbit antibody (1:3000) raised against the PCSK9 N-terminal peptide (^153[…]^168 (SEQ ID NO: 5)), followed with HRP-conjugated donkey anti-rabbit antibody (1:5000, GE Healthcare) using iBind (Invitrogen). PCSK9 signals were detected by ECL (GE Healthcare) and visualized by autoradiography.

His-EGF(A)-Fc = His-EGF(A)-Fc TR-FRET counterscreen
PCSK9 [4] = biological target: T1, PCSK9; experiment: PCSK9/EGF(A) TR-FRET binding assay; details: TR-FRET, read-out: PCSK9/EGF(A) IC50
PCSK9Δhelix [5] = biological target: T2, PCSK9Δhelix; experiment: PCSK9Δhelix/Ab20 TR-FRET binding assay
PCSK9 [6] = biological target: T1, PCSK9; experiment: Cell surface LDLR assay with HepG2 cells; assay type: cell-based; details: HepG2 cells, 15 μg/mL PCSK9, 4 h, FACS
Protocol: HepG2 cells (ATCC; Manassas, Va.) were seeded into 48 well plates (Corning; Corning, N.Y.) at 1×10^5 cells per well in high glucose medium (DMEM, Gibco; Carlsbad, Calif.) containing 2 mM glutamine (Sigma), penicillin/streptomycin (Gibco) and 10% FBS (Sigma; St. Louis, Mo.) and incubated overnight. Then the medium was changed to DMEM containing 10% lipoprotein deficient serum (LPDS, Sigma). After 24 h, 15 μg/mL PCSK9 was incubated with peptides or Fab33 for 30 min, added to the cells and incubated at 37° C. for 4 h. Cells were rinsed with PBS and detached using Cell Dissociation Buffer in PBS (Gibco). After centrifugation, the resuspended cells were incubated with 1:20 anti LDLR antibody (Progen Biotechnik; Heidelberg, Germany) on ice for 10 min. The samples were then washed with PBS and incubated with 1:200 diluted goat anti mouse IgG (H+L) Alexa Fluor 488 (Invitrogen; Carlsbad, Calif.) on ice for 5 min. After two PBS washes, cells were re suspended in PBS containing 2.5 μg/mL of propidium iodide and analyzed on a dual laser flow cytometer (FACScan, Becton Dickinson; Franklin Lakes, N.J.). Relative fluorescence units (RFUs) were used to quantify LDLR expression levels on the HepG2 cell surface. Cell surface LDLR levels were expressed as percent of LDLR levels measured in the absence of PCSK9 (=control).
The effect of Compound 229 on PCSK9-mediated LDL receptor degradation was measured in a HepG2 cell assay as previously described (Zhang et al., J Biol Chem. 2014 Jan. 10; 289(2):942-55). Peptides at various concentrations were preincubated with 15 μg/mL PCSK9 in the presence of 0.5% DMSO for 30 min prior to the addition to cells. After a 4 h incubation, the cells were processed for measurements of LDL receptor surface levels by flow cytometry as described (Zhang et al., J Biol Chem. 2014 Jan. 10; 289(2):942-55) (FIG. 37).

PCSK9 [7] = biological target: T1, PCSK9; experiment: Phage competition ELISA; assay type: binding
Protocol: The sequences of selected clones were fused to the N-terminus of M13 major coat protein (p8) using Kunkel mutagenesis method (Kunkel et al., Methods Enzymol 154, 367-82). The resulting construct was transformed to E. Coli. XL1 blue, single colony was grown in 1 mL 2YT supplemented with 50 μg/mL carbenicillin, 10 μg/mL Tetracycline and M13 KO7 helper phage at 37° C. for 2 h, Kanamycin was added to final concentration of 25 μg/mL, growth was continued at 37° C. for 6 h. The culture was transferred to 30 mL 2YT supplemented with 50 μg/mL carbenicillin and 25 μg/mL kanamycin and grown at 37° C. overnight. The next day, the phage was harvested and purified using the standard protocol (Tonikian et al. Nat Protoc. 2007; 2(6):1368-86). The serially diluted phage solution was applied to the biotinylated PCSK9 and biotinylated PCSK9Δhelix that had been immobilized for 15 min on a 384-well MaxiSorp ImmunoPlate previously coated with 5 μg/mL NeutrAvidin and blocked with Block buffer. The plate was incubated at 4° C. for 1 h, washed 10 times with PT buffer (PBS, 0.05% Tween® 20). The bound phage was detected with anti-M13-HRP and the ELISA signal was read at OD450 nm. The background was ELISA signal that the phage directly bound to NeutrAvidin-coated plate. The data was plotted and the curve fitted with KaleidaGraph. Sub-saturating phage concentration that gave 80% of maximum binding signal was determined by the binding curve.
IC50 measurements were performed by mixing a fixed sub-saturating concentration of peptide-displaying phage with a serial dilution of synthetic peptides in PBT buffer. The mixture was added to plates coated with PCSK9 and PCSK9Δhelix and incubated for 1 h at room temperature. The plates were then washed 10 times with PBT buffer and the bound phage was detected by anti-M13-HRP. The data was plotted, curve fitted and IC50 derived by use of KaleidaGraph. All measurements were repeated 3 times independently.

PCSK9Δhelix [8] = biological target: T2, PCSK9Δhelix; experiment: SPR affinity measurements of peptide binding (Example 8); details: Table 10, binding to PCSK9Δhelix
Protocol: A Biacore™ T100 or Biacore™ 8K was adjusted to 20° C. The system was primed into assay buffer which consisted of 25 mM HEPES, pH 7.5, 0.15 M NaCl, 0.005% (v/v) Tween® 20, 0.2 mM tris(2-carboxyethyl)phosphine and optionally contained 0.1% (w/v) carboxymethylated dextran (average MW 10 kDa) and 0.2% (w/v) PEG (average MW 3450 Da) in order to reduce potential non-specific binding. Peptides were assayed by capturing fresh PCSK9 or PCSK9Δhelix after each binding regeneration cycle by exploiting a histidine tag and an NTA-sensor chip. The surface was charged with (His)8-tagged PCSK9 (approximately 800 RU captured). […] Compound 19 and Compound 20 were assayed in six serial two-fold dilutions from 100 nM to 3.1 nM. All peptides were analyzed in duplicate by serial injection (50 μL/min for 1 min) of peptide dilution from low to high concentration. The surface was then stripped of target by injecting 0.5 M EDTA, pH 8.0. This sequence was repeated for each peptide binding cycle and blank control cycles.
All SPR data was recorded in duplicate for five, or more serial dilutions, except for the two fusion peptides, which produced extremely low fitting error. Multicycle data (i.e. separate curves for each concentration) and single cycle data (i.e. single curve with serial injection of each concentration) were double referenced and fitted to an interaction model using BIAevaluation software. Peptide binding to PCSK9 produced deviations from a simple 1:1 binding interaction model that required application of a two-state model for determination of Kd while interactions with PCSK9Δhelix conformed well to simple 1:1 binding. Kinetic curvature was poorly defined for rapidly dissociating peptides and in these cases Kd was estimated from a steady-state dose response plot. Kd values were reported with associated standard error, a measure of confidence in that parameter value.

[9] = Table 7, Target PCSK9Δhelix, SPR at 20° C., read-out: Kd
[10] = TR-FRET counterscreen, Table 8D, * = some inhibition at highest concentrations, not sufficient to fit an IC50
[11] = Example 4, read-out: Kd for PCSK9Δhelix
[12] = Table 8D, disulfide-cyclized extension peptides
[13] = TR-FRET, Example 7, read-out: PCSK9Δhelix/Ab20 IC50
[14] = TR-FRET, Table 8D, disulfide-cyclized extension peptides, read-out: PCSK9Δhelix/Ab20 IC50

Compound	Kd (PCSK9 [1]) [nM]	Kd (PCSK9Δhelix [2]; [9]) [nM]	effect on FXIa-mediated cleavage of the P′ helix of PCSK9-AAA [3]	IC50 (His-EGF(A)-Fc; [10]) [nM]	Kd (PCSK9Δhelix [2]; [11]) [nM]	IC50 (PCSK9 [4]; [12]) [nM]	IC50 (PCSK9Δhelix [5]; [13]) [nM]	IC50 (PCSK9Δhelix [5]; [14]) [nM]	IC50 (His-EGF(A)-Fc; counterscreen, Example 7) [nM]	also measured
CC(=O)N[C@H](C(=O)N[C@H](C(=O)N[C@@H](Cc1ccccc1)C(=O)N[C@H](C(=O)N[C@@H](CO)C(=O)N[C@@H](Cc1c[nH]c2cc(F)ccc12)C(=O)N[C@@H](CCC(=O)O)C(=O)N[C@@H](CCC(=O)O)C(=O)N[C@@H](Cc1ccc(O)cc1)C(=O)N[C@@H](CC(C)C)C(=O)N[C@@H](CC(=O)O)C(=O)N[C@@H](Cc1c[nH]c2ccccc12)C(=O)N[C@H](C(N)=O)C(C)C)[C@@H](C)O)C(C)C)[C@@H](C)O [Compound 3, Ac-TVFTS(W6fl)EEYLDWV-NH2]	1400	2580	–	–	–	–	–	–	–	improvement of binding to PCSK9 relative to Pep2-8 (PCSK9 [1]; Table 7): about 3 fold
CC[C@H](C)[C@@H]1NC(=O)[C@H](CCCNC(=N)N)NC(=O)[C@H](CCC(N)=O)NC(=O)[C@H](CC(C)C)NC(=O)[C@H](CC(N)=O)NC(=O)[C@H](Cc2c[nH]c3ccccc23)NC(=O)[C@@H]2CCCN2C(=O)[C@H]([C@@H](C)CC)NC(=O)[C@H](Cc2ccccc2)NC(=O)[C@@H](NC(=O)CNC(=O)[C@@H](N)CO)CSSC[C@@H](C(N)=O)NC(=O)[C@H](CC(C)C)NC(=O)[C@H](CC(C)C)NC(=O)CNC1=O [Compound 26] (H-SGCFIPWNLQRIGLLC-NH2; disulfide 3-16)	29000	803	accelerated the cleavage reaction; also recorded: able to increase the FXIa-mediated cleavage; also recorded: strongly accelerated the cleavage	–	–	–	–	–	–	–
CC[C@H](C)[C@@H]1NC(=O)[C@H](CCCNC(=N)N)NC(=O)[C@H](CCC(N)=O)NC(=O)[C@H](CC(C)C)NC(=O)[C@H](CC(N)=O)NC(=O)[C@H](Cc2c[nH]c3ccccc23)NC(=O)[C@@H]2CCCN2C(=O)[C@H](CC(C)C)NC(=O)[C@H](CCCNC(=N)N)NC(=O)[C@@H](NC(C)=O)CSSC[C@@H](C(N)=O)NC(=O)[C@@H]2CCCN2C(=O)[C@H](CC(C)C)NC(=O)CNC1=O [Compound 32] (Ac-CRLPWNLQRIGLPC-NH2; disulfide 1-14)	1300	–	–	> 50000	210	> 50000	~1000	970	–	–
CC[C@H](C)[C@@H]1NC(=O)[C@H](CCCNC(=N)N)NC(=O)[C@H](C)NC(=O)[C@H](CC(C)C)NC(=O)[C@H](CC(N)=O)NC(=O)[C@H](Cc2c[nH]c3ccccc23)NC(=O)[C@@H]2CCCN2C(=O)[C@H](CC(C)C)NC(=O)[C@H](CCCNC(=N)N)NC(=O)[C@@H](NC(C)=O)CSSC[C@@H](C(N)=O)NC(=O)[C@@H]2CCCN2C(=O)[C@H](CC(C)C)NC(=O)CNC1=O [Compound 73] (Ac-CRLPWNLARIGLPC-NH2; disulfide 1-14)	11000	–	–	> 50000	167	> 50000	–	915	–	–
CC(=O)N[C@H](C(=O)N[C@H](C(=O)N[C@@H](Cc1ccccc1)C(=O)N[C@H](C(=O)N[C@@H](CO)C(=O)N[C@@H](Cc1c[nH]c2ccccc12)C(=O)N[C@@H](CCC(=O)O)C(=O)N[C@@H](CCC(=O)O)C(=O)N[C@@H](Cc1ccc(O)cc1)C(=O)N[C@@H](CC(C)C)C(=O)N[C@@H](CC(=O)O)C(=O)N[C@@H](Cc1c[nH]c2ccccc12)C(=O)N[C@H](C(N)=O)C(C)C)[C@@H](C)O)C(C)C)[C@@H](C)O [Pep2-8, reference compound]	–	–	largely prevented cleavage	–	–	–	–	–	> 50000	EC50 (PCSK9 [6]): 5000 to 10000 nM; competition with binding of phage-displayed Pep2-8 to PCSK9 (PCSK9 [7]): inhibited phage-displayed Pep2-8 binding
Ac-PWNLVRIGLLR-NH2 [Compound 52]	17900	2600	–	–	–	–	10200	–	> 50000	Kd (PCSK9Δhelix [8]): 2100 nM; IC50 (PCSK9 [4]; Example 7): > 50000 nM; IC50 (PCSK9Δhelix [5]; Table 10, average ±S.D. of three experiments, read-out: Ab20 IC50): 15900 ± 1100 nM
